# Test results as given in paper PMC11822212, “High-throughput screening identifies Aurora kinase B as a critical therapeutic target for Merkel cell carcinoma” (Nature Communications, 2025).
# Like-named read-outs stand apart in the source and are kept apart here.
# Columns and labels:
# [1] = tested on: six MCC cell lines and four control cell lines; assay: qHTS cell viability, all 10 cell lines screened; type: cell-based
# WAGA cells (VP-MCC) = assay: qHTS cell viability (CellTiter-Glo, 72 h; primary and follow-up small molecule screen); type: cell-based, human
# [2] = tested on: control cell lines (HACAT, HEK293T, CRL-7250, NIH-3T3); assay: qHTS cell viability, control cell lines as a group (mean AUC, Control.avg); type: cell-based
# [3] = tested on: VN-MCC cell lines (MCC13, MCC26, UISO); assay: qHTS cell viability, VN-MCC cell lines as a group (mean AUC, VN.MCC.avg); type: cell-based, human
# CRL-7250 cells = assay: qHTS cell viability (CellTiter-Glo, 72 h; primary screen), control cell line; type: cell-based
# HACAT cells = assay: as above; type: cell-based, human
# [4] = tested on: VP-MCC cell lines (WAGA, MKL-1, MKL-2); assay: qHTS cell viability, VP-MCC cell lines as a group (mean AUC, VP.MCC.avg); type: cell-based, human
# MKL-2 cells (VP-MCC) = assay: qHTS cell viability (CellTiter-Glo, 72 h; primary and follow-up small molecule screen); type: cell-based, human
# MCC26 cells (VN-MCC) = assay: as above; type: cell-based, human
# UISO cells (VN-MCC) = assay: as above; type: cell-based, human
# [5] = tested on: MCC cell lines (WAGA, MKL-1, MKL-2, MCC13, MCC26, UISO); assay: qHTS cell viability, all six MCC cell lines as a group (mean AUC, MCC.avg); type: cell-based, human
# MCC13 cells (VN-MCC) = assay: qHTS cell viability (CellTiter-Glo, 72 h; primary and follow-up small molecule screen); type: cell-based, human
# MKL-1 cells (VP-MCC) = assay: as above; type: cell-based, human
# HEK293T cells = assay: qHTS cell viability (CellTiter-Glo, 72 h; primary screen), control cell line; type: cell-based, human
# NIH-3T3 cells = assay: as above; type: cell-based, mouse
# [6] = NPC library, therapeutic window: Control avg AUC minus MCC avg AUC
# [7] = NPC library, qHTS dose-response AUC, WAGA
# [8] = NPC library, mean AUC of control cell lines
# [9] = NPC library, mean AUC of VN-MCC cell lines
# [10] = NPC library, therapeutic window: Control avg AUC minus VN-MCC avg AUC
# [11] = NPC library, qHTS dose-response AUC, CRL7250 control
# [12] = NPC library, qHTS dose-response AUC, HACAT control
# [13] = NPC library, mean AUC of VP-MCC cell lines
# [14] = NPC library, therapeutic window: Control avg AUC minus VP-MCC avg AUC
# [15] = NPC library, qHTS dose-response AUC, MKL2
# [16] = NPC library, qHTS dose-response AUC, MCC26
# [17] = NPC library, qHTS dose-response AUC, UISO
# [18] = NPC library, mean AUC of six MCC cell lines
# [19] = NPC library, qHTS dose-response AUC, MCC13
# [20] = NPC library, qHTS dose-response AUC, MKL1
# [21] = NPC library, qHTS dose-response AUC, HEK293T control
# [22] = NPC library, qHTS dose-response AUC, NIH3T3 control
smiles,measurement,setting,value
CN(CC1(C)CCCO1)S(=O)(=O)c1ccc(Cl)c(S(N)(=O)=O)c1 (centres unmarked) [Mefruside],Control-MCC,[1]; [6],16.8852
same,WAGA_AUC,WAGA cells (VP-MCC); [7],408.321
same,Control_Avg_AUC,[2]; [8],467.688
same,VN-MCC_Avg_AUC,[3]; [9],490.65
same,Control-VN-MCC,[3]; [10],-22.9615
same,CRL7250_AUC,CRL-7250 cells; [11],471.553
same,HACAT_AUC,HACAT cells; [12],466.668
same,VP-MCC_Avg_AUC,[4]; [13],410.957
same,Control-VP-MCC,[4]; [14],56.732
same,MKL2_AUC,MKL-2 cells (VP-MCC); [15],389.363
same,MCC26_AUC,MCC26 cells (VN-MCC); [16],494.694
same,UISO_AUC,UISO cells (VN-MCC); [17],490.08
same,MCC_Avg_AUC,[5]; [18],450.803
same,MCC13_AUC,MCC13 cells (VN-MCC); [19],487.176
same,MKL1_AUC,MKL-1 cells (VP-MCC); [20],435.185
same,HEK293T_AUC,HEK293T cells; [21],446.841
same,NIH3T3_AUC,NIH-3T3 cells; [22],485.692
CC[N+](CC)(CC)CCOc1ccc(/C=C/c2ccccc2)cc1 [Stilonium iodide],Control-MCC,[1],21.0388
same,WAGA_AUC,WAGA cells (VP-MCC),348.194
same,Control_Avg_AUC,[2],382.981
same,Control-VN-MCC,[3],-18.2672
same,VN-MCC_Avg_AUC,[3],401.249
same,CRL7250_AUC,CRL-7250 cells,355.764
same,HACAT_AUC,HACAT cells,372.384
same,Control-VP-MCC,[4],60.3449
same,VP-MCC_Avg_AUC,[4],322.637
same,MKL2_AUC,MKL-2 cells (VP-MCC),312.305
same,MCC26_AUC,MCC26 cells (VN-MCC),402.111
same,UISO_AUC,UISO cells (VN-MCC),334.732
same,MCC_Avg_AUC,[5],361.943
same,MCC13_AUC,MCC13 cells (VN-MCC),466.903
same,MKL1_AUC,MKL-1 cells (VP-MCC),307.411
same,HEK293T_AUC,HEK293T cells,375.842
same,NIH3T3_AUC,NIH-3T3 cells,427.937
CC1=C(C)C(=O)C(CCCCC#CCCCC#CCO)=C(C)C1=O [Docebenone],Control-MCC,[1]; [6],44.0275
same,WAGA_AUC,WAGA cells (VP-MCC); [7],424.745
same,WAGA_AUC,"WAGA cells (VP-MCC); area under the dose-response curve, WAGA cells, AUC<450 = reduced viability",424.745
same,Control_Avg_AUC,[2]; [8],470.48
same,VN-MCC_Avg_AUC,[3]; [9],435.96
same,Control-VN-MCC,[3]; [10],34.5201
same,CRL7250_AUC,CRL-7250 cells; [11],490.119
same,CRL7250_AUC,"CRL-7250 cells; area under the dose-response curve, CRL7250 control cells, AUC<450 = reduced viability",490.119
same,HACAT_AUC,HACAT cells; [12],486.31
same,HACAT_AUC,"HACAT cells; area under the dose-response curve, HACAT control cells, AUC<450 = reduced viability",486.31
same,VP-MCC_Avg_AUC,[4]; [13],416.945
same,Control-VP-MCC,[4]; [14],53.5349
same,MKL2_AUC,MKL-2 cells (VP-MCC); [15],406.862
same,MKL2_AUC,"MKL-2 cells (VP-MCC); area under the dose-response curve, MKL-2 cells, AUC<450 = reduced viability",406.862
same,MCC26_AUC,MCC26 cells (VN-MCC); [16],429.759
same,MCC26_AUC,"MCC26 cells (VN-MCC); area under the dose-response curve, MCC26 cells, AUC<450 = reduced viability",429.759
same,UISO_AUC,UISO cells (VN-MCC); [17],433.913
same,UISO_AUC,"UISO cells (VN-MCC); area under the dose-response curve, UISO cells, AUC<450 = reduced viability",433.913
same,MCC_Avg_AUC,[5]; [18],426.453
same,MCC13_AUC,MCC13 cells (VN-MCC); [19],444.208
same,MCC13_AUC,"MCC13 cells (VN-MCC); area under the dose-response curve, MCC13 cells, AUC<450 = reduced viability",444.208
same,MKL1_AUC,MKL-1 cells (VP-MCC); [20],419.228
same,MKL1_AUC,MKL-1 cells (VP-MCC); {},419.228
same,HEK293T_AUC,HEK293T cells; [21],450.348
same,HEK293T_AUC,"HEK293T cells; area under the dose-response curve, HEK293T control cells, AUC<450 = reduced viability",450.348
same,NIH3T3_AUC,NIH-3T3 cells; [22],455.144
same,NIH3T3_AUC,"NIH-3T3 cells; area under the dose-response curve, NIH3T3 control cells, AUC<450 = reduced viability",455.144
CCCCCCCCCCCC[N+](C)(C)CCOc1ccccc1 [Domiphen bromide],Control-MCC,[1],42.3914
same,WAGA_AUC,WAGA cells (VP-MCC),371.251
same,Control_Avg_AUC,[2],427.025
same,Control-VN-MCC,[3],9.236
same,VN-MCC_Avg_AUC,[3],417.789
same,CRL7250_AUC,CRL-7250 cells,449.796
same,HACAT_AUC,HACAT cells,409.601
same,Control-VP-MCC,[4],75.5464
same,VP-MCC_Avg_AUC,[4],351.479
same,MKL2_AUC,MKL-2 cells (VP-MCC),321.555
same,MCC26_AUC,MCC26 cells (VN-MCC),403.074
same,UISO_AUC,UISO cells (VN-MCC),370.326
same,MCC_Avg_AUC,[5],384.634
same,MCC13_AUC,MCC13 cells (VN-MCC),479.965
same,MKL1_AUC,MKL-1 cells (VP-MCC),361.63
same,HEK293T_AUC,HEK293T cells,413.225
same,NIH3T3_AUC,NIH-3T3 cells,435.478
Cl.Oc1ccc2c3c1O[C@H]1[C@@H](O)C=C[C@H]4[C@@H](C2)NCC[C@@]341 [N-Normorphine hydrochloride],Control-MCC,[1],55.7462
same,WAGA_AUC,WAGA cells (VP-MCC),412.634
same,Control_Avg_AUC,[2],483.566
same,Control-VN-MCC,[3],45.2651
same,VN-MCC_Avg_AUC,[3],438.301
same,CRL7250_AUC,CRL-7250 cells,485.195
same,HACAT_AUC,HACAT cells,477.868
same,Control-VP-MCC,[4],66.2273
same,VP-MCC_Avg_AUC,[4],417.339
same,MKL2_AUC,MKL-2 cells (VP-MCC),420.551
same,MCC26_AUC,MCC26 cells (VN-MCC),408.273
same,UISO_AUC,UISO cells (VN-MCC),440.259
same,MCC_Avg_AUC,[5],427.82
same,MCC13_AUC,MCC13 cells (VN-MCC),466.371
same,MKL1_AUC,MKL-1 cells (VP-MCC),418.832
same,HEK293T_AUC,HEK293T cells,480.826
same,NIH3T3_AUC,NIH-3T3 cells,490.376
